Molecular target: T1, human Histamine H3 receptor (hH3R) (Homo sapiens, UniProt Q9Y5N1)
T1 construct: expressed in transfected cells; host or cells: CHO cells (Chinese Hamster Ovary); membranes
Test: GTPγS Binding Assay (antagonist activity, [35S]GTPγS, (R)-α-methyl histamine 30 nM)
Type: biochemical
Conditions: membranes from CHO cells expressing hH3R, 90 minutes at room temperature
Description: Guanosine 5′-O-(3-[^35S]thio)triphosphate [GTPγS] Binding Assay
A GTPγS binding assay can be used to investigate antagonist properties of compounds in CHO cells (Chinese Hamster Ovary) transfected with human Histamine H3 receptor (hH3R). Membranes from CHO cells expressing hH3R (10 μg/well) are diluted in GTPγS assay buffer (20 mM Hepes, 10 mM MgCl2, 100 mM NaCl, pH 7.4) and preincubated with saponine (3 μg/ml), GDP (10 μM) and PVT-WGA SPA beads (125 μg/well) (Amersham) for 30 minutes. To determine antagonist activity, (R)-α-methyl histamine (30 nM) is added in 96 well SPA plate with [^35S]GTPγS (0.2 nM) and various concentration of H3R antagonists. The GTPγS binding assay is started with addition of the mixture membrane/saponine/GDP and incubated for 90 minutes at room temperature. The amount of bound [^35S]GTPγS is determined by using the MicroBeta Trilux counter (PerkinElmer). The percentage of [^35S]GTPγS bound in each sample is calculated as a percentage of that bound control sample incubated in absence of H3 antagonist. Duplicate determinations are obtained for each concentration, and the data are analyzed using ExcelFit4 to obtain the IC50.

T1 sequence (Q9Y5N1 whole entry): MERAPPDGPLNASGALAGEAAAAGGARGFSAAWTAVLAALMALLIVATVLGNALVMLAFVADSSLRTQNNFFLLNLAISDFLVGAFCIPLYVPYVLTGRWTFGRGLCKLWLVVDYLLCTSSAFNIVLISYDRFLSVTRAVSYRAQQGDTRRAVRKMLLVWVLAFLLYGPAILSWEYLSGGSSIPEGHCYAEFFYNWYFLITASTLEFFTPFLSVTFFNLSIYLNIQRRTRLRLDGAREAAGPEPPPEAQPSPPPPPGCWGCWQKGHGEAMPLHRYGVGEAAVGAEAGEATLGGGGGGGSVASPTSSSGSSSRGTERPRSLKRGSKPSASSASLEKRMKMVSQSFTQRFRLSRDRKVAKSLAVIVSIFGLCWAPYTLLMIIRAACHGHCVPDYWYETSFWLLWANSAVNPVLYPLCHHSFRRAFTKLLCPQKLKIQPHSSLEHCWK

| IC50 [µM] | Structure (SMILES) |
| --- | --- |
| 0.00997 | O=C(C1CC2(CCN(S(=O)(=O)c3cccc(F)c3)CC2)C1)N1CCCN(C2CCC2)CC1 [Example 39, (4-cyclobutyl-1,4-diazepan-1-yl)(7-(3-fluorophenylsulfonyl)-7-azaspiro[3.5]nonan-2-yl)methanone] |
| 0.00887 | Cc1cc(C(=O)N2CCC3(CC2)CC(C(=O)N2CCCN(C4CCC4)CC2)C3)ccn1 [Example 43, (4-cyclobutyl-1,4-diazepan-1-yl)(7-(2-methylisonicotinoyl)-7-azaspiro[3.5]nonan-2-yl)methanone] |
| 0.0101 | O=C(C1CC2(CCN(c3ccncc3)CC2)C1)N1CCN(C2CCC2)CC1 [Example 66, (4-cyclobutylpiperazin-1-yl)(7-(pyridin-4-yl)-7-azaspiro[3.5]nonan-2-yl)methanone] |
| 0.0218 | Cc1cc(C(=O)N2CCC3(CC2)CC(C(=O)N2CCN(C4CCC4)CC2)C3)ccn1 [Example 24, (4-cyclobutylpiperazin-1-yl)(7-(2-methylisonicotinoyl)-7-azaspiro[3.5]nonan-2-yl)methanone] |
| 0.0212 | C[C@H]1CN(C2CCC2)CCN1C(=O)C1CC2(CCN(S(C)(=O)=O)CC2)C1 [Example 63, ((S)-4-cyclobutyl-2-methylpiperazin-1-yl)(7-(methylsulfonyl)-7-azaspiro[3.5]nonan-2-yl)methanone] |
| 0.0339 | CC(C)N1CCN(C(=O)C2CC3(CCN(S(C)(=O)=O)CC3)C2)CC1 [Example 33, (4-isopropylpiperazin-1-yl)(7-(methylsulfonyl)-7-azaspiro[3.5]nonan-2-yl)methanone] |
| 0.0564 | CC(C)N1CCCN(C(=O)C2CC3(CCN(S(C)(=O)=O)CC3)C2)CC1 [Example 52, (4-isopropyl-1,4-diazepan-1-yl)(7-(methylsulfonyl)-7-azaspiro[3.5]nonan-2-yl)methanone] |
| 0.0484 | O=C(c1ccccc1)N1CCC2(CC1)CC(C(=O)N1CCN(C3CCC3)CC1)C2 [Example 30, (7-benzoyl-7-azaspiro[3.5]nonan-2-yl)(4-cyclobutylpiperazin-1-yl)methanone] |
| 0.179 | CC(C)N1CCN(C(=O)C2CC3(CCN(S(C)(=O)=O)CC3)C2)C[C@@H]1C [Example 61, ((S)-4-isopropyl-3-methylpiperazin-1-yl)(7-(methylsulfonyl)-7-azaspiro[3.5]nonan-2-yl)methanone] |
| 0.00606 | Cc1cnccc1C(=O)N1CCC2(CC1)CC(C(=O)N1CCN(C3CCC3)CC1)C2 [Example 23, (4-cyclobutylpiperazin-1-yl)(7-(3-methylisonicotinoyl)-7-azaspiro[3.5]nonan-2-yl)methanone] |
| 0.0238 | COc1cc(C(=O)N2CCC3(CC2)CC(C(=O)N2CCN(C4CCC4)CC2)C3)ccn1 [Example 26, (4-cyclobutylpiperazin-1-yl)(7-(2-methoxyisonicotinoyl)-7-azaspiro[3.5]nonan-2-yl)methanone] |
| 0.115 | CC(C)N1CCCN(C(=O)C2CC3(CCN(C(=O)c4cccnc4)CC3)C2)CC1 [Example 55, (4-isopropyl-1,4-diazepan-1-yl)(7-nicotinoyl-7-azaspiro[3.5]nonan-2-yl)methanone] |
| 0.0477 | O=C(Nc1ccccc1)N1CCC2(CC1)CC(C(=O)N1CCN(C3CCC3)CC1)C2 [Example 32, 2-(4-cyclobutylpiperazine-1-carbonyl)-N-phenyl-7-azaspiro[3.5]nonane-7-carboxamide] |
| 0.0664 | Cc1cc(C(=O)N2CCC3(CC2)CC(C(=O)N2CCN(C(C)C)CC2)C3)ccn1 [Example 34, (4-isopropylpiperazin-1-yl)(7-(2-methylisonicotinoyl)-7-azaspiro[3.5]nonan-2-yl)methanone] |
| 0.054 | Cc1cccc(C(=O)N2CCC3(CC2)CC(C(=O)N2CCN(C4CCC4)CC2)C3)n1 [Example 18, (4-cyclobutylpiperazin-1-yl)(7-(6-methylpicolinoyl)-7-azaspiro[3.5]nonan-2-yl)methanone] |
| 0.0138 | O=C(Cc1ccncc1)N1CCC2(CC1)CC(C(=O)N1CCN(C3CCC3)CC1)C2 [Example 28, 1-(2-(4-cyclobutylpiperazine-1-carbonyl)-7-azaspiro[3.5]nonan-7-yl)-2-(pyridin-4-yl)ethanone] |
| 0.00761 | O=C(c1ccncc1)N1CCC2(CC1)CC(C(=O)N1CCCN(C3CCC3)CC1)C2 [Example 45, (4-cyclobutyl-1,4-diazepan-1-yl)(7-isonicotinoyl-7-azaspiro[3.5]nonan-2-yl)methanone] |
| 0.114 | CC(C)N1CCN(C(=O)C2CC3(CCN(C(=O)N(C)C)CC3)C2)CC1 [Example 37, 2-(4-isopropylpiperazine-1-carbonyl)-N,N-dimethyl-7-azaspiro[3.5]nonane-7-carboxamide] |

| IC50 [µM] | Structure (SMILES) |
| --- | --- |
| 0.0178 | O=C(C1CC2(CCN(c3cccnc3)CC2)C1)N1CCN(C2CCC2)CC1 [Example 1, (4-cyclobutylpiperazin-1-yl)(7-(pyridin-3-yl)-7-azaspiro[3.5]nonan-2-yl)methanone] |
| 0.00729 | CS(=O)(=O)N1CCC2(CC1)CC(C(=O)N1CCN(C3CCC3)CC1)C2 [Example 5, (4-cyclobutylpiperazin-1-yl)(7-(methylsulfonyl)-7-azaspiro[3.5]nonan-2-yl)methanone] |
| 0.0197 | O=C(CCc1ccncc1)N1CCC2(CC1)CC(C(=O)N1CCN(C3CCC3)CC1)C2 [Example 29, 1-(2-(4-cyclobutylpiperazine-1-carbonyl)-7-azaspiro[3.5]nonan-7-yl)-3-(pyridin-4-yl)propan-1-one] |
| 0.0168 | N#Cc1cnccc1C(=O)N1CCC2(CC1)CC(C(=O)N1CCN(C3CCC3)CC1)C2 [Example 64, 4-(2-(4-cyclobutylpiperazine-1-carbonyl)-7-azaspiro[3.5]nonane-7-carbonyl)nicotinonitrile] |
| 0.00622 | O=C(C1CC2(CCN(S(=O)(=O)c3ccccc3F)CC2)C1)N1CCCN(C2CCC2)CC1 [Example 40, (4-cyclobutyl-1,4-diazepan-1-yl)(7-(2-fluorophenylsulfonyl)-7-azaspiro[3.5]nonan-2-yl)methanone] |
| 0.0296 | O=C(c1cnccc1Cl)N1CCC2(CC1)CC(C(=O)N1CCN(C3CCC3)CC1)C2 [Example 10, (7-(4-chloronicotinoyl)-7-azaspiro[3.5]nonan-2-yl)(4-cyclobutylpiperazin-1-yl)methanone] |
| 0.161 | CC(C)N1CCCN(C(=O)C2CC3(CCN(C(=O)c4ccncc4)CC3)C2)CC1 [Example 54, (7-isonicotinoyl-7-azaspiro[3.5]nonan-2-yl)(4-isopropyl-1,4-diazepan-1-yl)methanone] |
| 0.00502 | N#Cc1ccccc1C(=O)N1CCC2(CC1)CC(C(=O)N1CCCN(C3CCC3)CC1)C2 [Example 51, 2-(2-(4-cyclobutyl-1,4-diazepane-1-carbonyl)-7-azaspiro[3.5]nonane-7-carbonyl)benzonitrile] |
| 0.0415 | Cc1ccncc1C(=O)N1CCC2(CC1)CC(C(=O)N1CCN(C3CCC3)CC1)C2 [Example 14, (4-cyclobutylpiperazin-1-yl)(7-(4-methylnicotinoyl)-7-azaspiro[3.5]nonan-2-yl)methanone] |
| 0.0125 | Cc1cncc(C(=O)N2CCC3(CC2)CC(C(=O)N2CCN(C4CCC4)CC2)C3)c1 [Example 25, (4-cyclobutylpiperazin-1-yl)(7-(5-methylnicotinoyl)-7-azaspiro[3.5]nonan-2-yl)methanone] |
| 0.0517 | O=C(C1CC2(CCN(c3cnccn3)CC2)C1)N1CCN(C2CCC2)CC1 [Example 65, (4-cyclobutylpiperazin-1-yl)(7-(pyrazin-2-yl)-7-azaspiro[3.5]nonan-2-yl)methanone] |
| 0.0229 | O=C(C1CC2(CCN(c3cncnc3)CC2)C1)N1CCN(C2CCC2)CC1 [Example 67, (4-cyclobutylpiperazin-1-yl)(7-(pyrimidin-5-yl)-7-azaspiro[3.5]nonan-2-yl)methanone] |
| 0.0281 | Cc1ncccc1C(=O)N1CCC2(CC1)CC(C(=O)N1CCN(C3CCC3)CC1)C2 [Example 13, (4-cyclobutylpiperazin-1-yl)(7-(2-methylnicotinoyl)-7-azaspiro[3.5]nonan-2-yl)methanone] |
| 0.0208 | O=C(c1cncc(Cl)c1)N1CCC2(CC1)CC(C(=O)N1CCN(C3CCC3)CC1)C2 [Example 9, (7-(5-chloronicotinoyl)-7-azaspiro[3.5]nonan-2-yl)(4-cyclobutylpiperazin-1-yl)methanone] |
| 0.0262 | Cc1ccc(C(=O)N2CCC3(CC2)CC(C(=O)N2CCN(C4CCC4)CC2)C3)cn1 [Example 12, (4-cyclobutylpiperazin-1-yl)(7-(6-methylnicotinoyl)-7-azaspiro[3.5]nonan-2-yl)methanone] |
| 0.00871 | O=C(C1CC2(CCN(S(=O)(=O)c3ccccc3)CC2)C1)N1CCCN(C2CCC2)CC1 [Example 41, (4-cyclobutyl-1,4-diazepan-1-yl)(7-(phenylsulfonyl)-7-azaspiro[3.5]nonan-2-yl)methanone] |
| 0.707 | Cc1cc(C(=O)N2CCC3(CC2)CC(C(=O)N2CCN(C4CCC4)CC(C)(C)C2)C3)ccn1 [Example 57, (4-cyclobutyl-6,6-dimethyl-1,4-diazepan-1-yl)(7-(2-methylisonicotinoyl)-7-azaspiro[3.5]nonan-2-yl)methanone] |
| 0.177 | CC(C)N1CCN(C(=O)C2CC3(CCN(S(C)(=O)=O)CC3)C2)C[C@H]1C [Example 60, ((R)-4-isopropyl-3-methylpiperazin-1-yl)(7-(methylsulfonyl)-7-azaspiro[3.5]nonan-2-yl)methanone] |

— patent publication US20100130477A1, “Spirocyclobutyl Piperidine Derivatives” (ASTRAZENECA AB, priority 2008, published 2010)
